These results are taken from the supplement of paper PMC10627819.

What all share (experiment): Bliss interaction score (quartile over a dose matrix) (fitness difference); higher = more antagonism (negative = synergy)
The test system of one assay is B. subtilis 168. A digest of the protocol: (§1)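 Fitness was defined as normalised growth: OD595 at the start of stationary phase divided by the plate's robust no-drug mean and capped at 1. Single-drug fitness was inferred from combination measurements. The Bliss score is observed fitness minus the product of the single-drug values, summarised by quartiles across technical, biological and donor/recipient replicates.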

For a further assay, the system named is S. aureus DSM 20231. A digest of the protocol: as §1
The subject of a further assay is S. aureus Newman. A digest of the protocol: as §1
The test system of the next assay is S. pneumoniae D39V. A digest of the protocol:
as §1
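Also: first quartile when negative (synergy) and third quartile when positive (antagonism).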

For the compound `CC[C@H](C)[C@H](N)C1=N[C@H](C(=O)N[C@@H](CC(C)C)C(=O)N[C@H](CCC(=O)O)C(=O)N[C@H](C(=O)N[C@H]2CCCCNC(=O)[C@H](CC(N)=O)NC(=O)[C@@H](CC(=O)O)NC(=O)[C@H](Cc3cnc[nH]3)NC(=O)[C@@H](Cc3ccccc3)NC(=O)[C@H]([C@@H](C)CC)NC(=O)[C@@H](CCCN)NC2=O)[C@@H](C)CC)CS1` [Bacitracin] + C[C@@H](O)[C@H]1C(=O)N2C(C(=O)O)=C(SCCNC=N)C[C@H]12 [Imipenem], the Bliss interaction score in the assay on B. subtilis 168 (main component drawn) is -0.359; in the assay on S. aureus DSM 20231 (main component drawn), 0.0207; in the assay on S. aureus Newman (main component drawn), -0.0113; in the assay on S. pneumoniae D39V (main component drawn) it was -0.0576.

For the compound `CC[C@H]1OC(=O)[C@H](C)[C@@H](O[C@H]2C[C@@](C)(OC)[C@@H](O)[C@H](C)O2)[C@H](C)[C@@H](O[C@@H]2O[C@H](C)C[C@H](N(C)C)[C@H]2O)[C@](C)(O)C[C@@H](C)C(=O)[C@H](C)[C@@H](O)[C@]1(C)O` [Erythromycin] + CCC(C)C1C(=O)NC(=C)C(=O)NC(C(=O)NC(CSCC(C(=O)N1)NC(=O)/C(=C/C)/NC(=O)C(C(C)CC)N)C(=O)NC2C(SCC(NC(=O)CNC(=O)C3CCCN3C2=O)C(=O)NC(CCCCN)C(=O)NC4C(SCC(NC(=O)CNC(=O)C(NC(=O)C(NC(=O)C(NC(=O)CNC4=O)C)CC(C)C)CCSC)C(=O)NC(CC(=O)N)C(=O)NC(CCSC)C(=O)NC(CCCCN)C(=O)NC5C(SCC6C(=O)NC(C(=O)NC(CSC(C(C(=O)N6)NC(=O)C(NC5=O)C)C)C(=O)NC(CO)C(=O)NC(C(C)CC)C(=O)NC(CC7=CN=CN7)C(=O)NC(C(C)C)C(=O)NC(=C)C(=O)NC(CCCCN)C(=O)O)CC8=CN=CN8)C)C)C)CC(C)C [Nisin], the Bliss interaction score in the assay with B. subtilis 168 (main component drawn) was 0.0295; in the assay with S. aureus DSM 20231 (main component drawn), -0.029; in the assay with S. aureus Newman (main component drawn) it was -0.028; in the assay on S. pneumoniae D39V (main component drawn), -0.0423.

Take `CC[C@H]1OC(=O)[C@H](C)[C@@H](O[C@H]2C[C@@](C)(OC)[C@@H](O)[C@H](C)O2)[C@H](C)[C@@H](O[C@@H]2O[C@H](C)C[C@H](N(C)C)[C@H]2O)[C@](C)(O)C[C@@H](C)C(=O)[C@H](C)[C@@H](O)[C@]1(C)O` [Erythromycin] + Clc1ccc(COC(Cn2ccnc2)c2ccc(Cl)cc2Cl)c(Cl)c1 [Miconazole]: the Bliss interaction score in the assay with B. subtilis 168 is -0.0519; with S. aureus DSM 20231, 0.0299; in the assay with S. aureus Newman it was 0.0457; in the assay on S. pneumoniae D39V it was 0.114.

In the case of `CC[C@H](C)[C@H](N)C1=N[C@H](C(=O)N[C@@H](CC(C)C)C(=O)N[C@H](CCC(=O)O)C(=O)N[C@H](C(=O)N[C@H]2CCCCNC(=O)[C@H](CC(N)=O)NC(=O)[C@@H](CC(=O)O)NC(=O)[C@H](Cc3cnc[nH]3)NC(=O)[C@@H](Cc3ccccc3)NC(=O)[C@H]([C@@H](C)CC)NC(=O)[C@@H](CCCN)NC2=O)[C@@H](C)CC)CS1` [Bacitracin] + CC(=O)O[C@H]1C[C@@]2(C)[C@@H](C[C@@H](O)[C@H]3[C@@]4(C)CC[C@@H](O)[C@@H](C)[C@@H]4CC[C@@]32C)/C1=C(\CCC=C(C)C)C(=O)O [Fusidic acid], the Bliss interaction score in the assay on B. subtilis 168 (main component drawn) was -0.166; in the assay on S. aureus DSM 20231 (main component drawn), 0.012; in the assay with S. aureus Newman (main component drawn), -0.0273; in the assay on S. pneumoniae D39V (main component drawn), -0.0749.

With `CO[C@@]12[C@H](COC(N)=O)C3=C(C(=O)C(C)=C(N)C3=O)N1C[C@@H]1N[C@@H]12` [MitomycinC] + Cc1onc(-c2ccccc2)c1C(=O)N[C@@H]1C(=O)N2[C@@H]1SC(C)(C)[C@@H]2C(=O)O [Oxacillin], the Bliss interaction score with B. subtilis 168 was -0.0799; with S. aureus DSM 20231, 0.0499; with S. aureus Newman, 0.046; in the assay on S. pneumoniae D39V, 0.0896.

Turning to `CC[C@H](C)[C@H](N)C1=N[C@H](C(=O)N[C@@H](CC(C)C)C(=O)N[C@H](CCC(=O)O)C(=O)N[C@H](C(=O)N[C@H]2CCCCNC(=O)[C@H](CC(N)=O)NC(=O)[C@@H](CC(=O)O)NC(=O)[C@H](Cc3cnc[nH]3)NC(=O)[C@@H](Cc3ccccc3)NC(=O)[C@H]([C@@H](C)CC)NC(=O)[C@@H](CCCN)NC2=O)[C@@H](C)CC)CS1` [Bacitracin] + N[C@@H]1CONC1=O [CycloserineD], the Bliss interaction score in the assay on B. subtilis 168 (main component drawn) was 0.0719; with S. aureus DSM 20231 (main component drawn) it was -0.0841; in the assay on S. aureus Newman (main component drawn) it was 0.0872; in the assay with S. pneumoniae D39V (main component drawn), 0.118.

For `CC[C@H]1OC(=O)[C@H](C)[C@@H](O[C@H]2C[C@@](C)(OC)[C@@H](O)[C@H](C)O2)[C@H](C)[C@@H](O[C@@H]2O[C@H](C)C[C@H](N(C)C)[C@H]2O)[C@](C)(O)C[C@@H](C)C(=O)[C@H](C)[C@@H](O)[C@]1(C)O` [Erythromycin] + Oc1cc(Cl)ccc1Oc1ccc(Cl)cc1Cl [Triclosan], the Bliss interaction score in the assay on B. subtilis 168 is -0.0438; in the assay on S. aureus DSM 20231, -0.0265; with S. aureus Newman, 0.0312; with S. pneumoniae D39V it was -0.0874.

For `CC[C@H]1OC(=O)[C@H](C)[C@@H](O[C@H]2C[C@@](C)(OC)[C@@H](O)[C@H](C)O2)[C@H](C)[C@@H](O[C@@H]2O[C@H](C)C[C@H](N(C)C)[C@H]2O)[C@](C)(O)C[C@@H](C)C(=O)[C@H](C)[C@@H](O)[C@]1(C)O` [Erythromycin] + O=C1CN(/N=C/c2ccc([N+](=O)[O-])o2)C(=O)N1 [Nitrofurantoin], the Bliss interaction score is -0.0393 in the assay with B. subtilis 168, -0.0518 in the assay with S. aureus DSM 20231, -0.0513 in the assay with S. aureus Newman and -0.197 with S. pneumoniae D39V.
